In US20230085307A1, “PYRIDAZINONE COMPOUND AND HERBICIDE” (NISSAN CHEMICAL CORPORATION, priority 2019, published 2023):

Legend:
late watergrass = assay: Test Example 1: herbicidal activity, application before weed generation under submerged conditions (Table 16, symbol A); format: in vivo, late watergrass (Echinochloa oryzicola); details: amount of applied herbicide 320 g/ha
Procedure, shortened: (§1)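 Alluvial soil was flooded to 4 cm depth, weed seeds were sown mixed and 2.5-leaf rice seedlings were transplanted. On sowing day, the compound's emulsion, diluted in water to a set dose, was applied to the water surface. Plants grew at 25–30 °C and were scored 0–5 after three weeks.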

Japanese bulrush = assay: Test Example 1: herbicidal activity, application before weed generation under submerged conditions (Table 16, symbol B); format: in vivo, Japanese bulrush (Schoenoplectus juncoides); details: amount of applied herbicide 320 g/ha
Procedure, shortened: as §1

oval-leafed pondweed = assay: Test Example 1: herbicidal activity, application before weed generation under submerged conditions (Table 16, symbol C); format: in vivo, oval-leafed pondweed (Monochoria vaginalis); details: amount of applied herbicide 320 g/ha
Procedure, shortened: as §1

barnyard grass [1] = assay: Test Example 3: herbicidal effect by foliage application, Wagner pot (Table 18, symbol H); format: in vivo, barnyard grass (Echinochloa crus-galli); details: 320 g/ha
Procedure, shortened: (§2)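 Plants were sown in alluvial soil held under 0.1–0.5 cm standing water and grown 14 days in a greenhouse at 25–30 °C. An emulsifiable formulation, water-diluted to the set dose, was then sprayed onto the foliage, and effects were scored three weeks later using previously defined criteria.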

Chinese sprangletop = assay: Test Example 3: herbicidal effect by foliage application, Wagner pot (Table 18, symbol D); format: in vivo, chinese sprangletop (Leptochloa chinensis); details: 320 g/ha
Procedure, shortened: as §2

rice flat sedge = assay: Test Example 3: herbicidal effect by foliage application, Wagner pot (Table 18, symbol E); format: in vivo, rice flat sedge (Cyperus iria); details: 320 g/ha
Procedure, shortened: as §2

southern crabgrass [2] = assay: Test Example 4: herbicidal effect by soil treatment (Table 19, symbol F); format: in vivo, southern crabgrass (Digitaria ciliaris); details: amount of applied herbicide 320 g/ha
Procedure, shortened: (§3)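 Scoring uses the grading scale of an earlier test, three weeks post-application. Treatment consists of spraying a diluted emulsion formulation across the surface of sterilized diluvial soil in which seeds are buried near 1.5 cm deep; boxes are kept in a greenhouse between 25° C. and 30° C.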

green foxtail [3] = assay: Test Example 4: herbicidal effect by soil treatment (Table 19, symbol G); format: in vivo, green foxtail (Setaria viridis); details: amount of applied herbicide 320 g/ha
Procedure, shortened: as §3

barnyard grass [4] = assay: Test Example 4: herbicidal effect by soil treatment (Table 19, symbol H); format: in vivo, barnyard grass (Echinochloa crus-galli); details: amount of applied herbicide 320 g/ha
Procedure, shortened: as §3

wild oat [5] = assay: Test Example 4: herbicidal effect by soil treatment (Table 19, symbol I); format: in vivo, wild oat (Avena fatua); details: amount of applied herbicide 320 g/ha
Procedure, shortened: as §3

blackgrass [6] = assay: Test Example 4: herbicidal effect by soil treatment (Table 19, symbol J); format: in vivo, blackgrass (Alopecurus myosuroides); details: amount of applied herbicide 320 g/ha
Procedure, shortened: as §3

Italian ryegrass [7] = assay: Test Example 4: herbicidal effect by soil treatment (Table 19, symbol K); format: in vivo, Italian ryegrass (Lolium multiflorum); details: amount of applied herbicide 320 g/ha
Procedure, shortened: as §3

windgrass [8] = assay: Test Example 4: herbicidal effect by soil treatment (Table 19, symbol L); format: in vivo, windgrass (Apera spica-venti); details: amount of applied herbicide 320 g/ha
Procedure, shortened: as §3

velvetleaf [9] = assay: Test Example 4: herbicidal effect by soil treatment (Table 19, symbol M); format: in vivo, velvetleaf (Abutilon theophrasti); details: amount of applied herbicide 320 g/ha
Procedure, shortened: as §3

redroot pigweed [10] = assay: Test Example 4: herbicidal effect by soil treatment (Table 19, symbol N); format: in vivo, redroot pigweed (Amaranthus retroflexus); details: amount of applied herbicide 320 g/ha
Procedure, shortened: as §3

lambsquarters [11] = assay: Test Example 4: herbicidal effect by soil treatment (Table 19, symbol O); format: in vivo, lambsquarters (Chenopodium album); details: amount of applied herbicide 320 g/ha
Procedure, shortened: as §3

chickweed [12] = assay: Test Example 4: herbicidal effect by soil treatment (Table 19, symbol P); format: in vivo, common chickweed (Stellaria media); details: amount of applied herbicide 320 g/ha
Procedure, shortened: as §3

false cleavers = assay: Test Example 4: herbicidal effect by soil treatment (Table 19, symbol Q); format: in vivo, false cleavers (Galium spurium); details: amount of applied herbicide 320 g/ha
Procedure, shortened: as §3

southern crabgrass [13] = assay: Test Example 5: herbicidal effect by foliage application, plastic box (Table 20, symbol F); format: in vivo, southern crabgrass (Digitaria ciliaris); details: amount of applied herbicide 320 g/ha; foliage application after 14-day growth; evaluated three weeks after application
Procedure, shortened: (§4)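 Post-emergence foliar test in sterilized diluvial soil. Compound applied as water-diluted emulsion at a predetermined rate to 14-day-old plants; evaluation at three weeks.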

green foxtail [14] = assay: Test Example 5: herbicidal effect by foliage application, plastic box (Table 20, symbol G); format: in vivo, green foxtail (Setaria viridis); details: amount of applied herbicide 320 g/ha; foliage application after 14-day growth; evaluated three weeks after application
Procedure, shortened: as §4

barnyard grass [15] = assay: Test Example 5: herbicidal effect by foliage application, plastic box (Table 20, symbol H); format: in vivo, barnyard grass (Echinochloa crus-galli); details: amount of applied herbicide 320 g/ha; foliage application after 14-day growth; evaluated three weeks after application
Procedure, shortened: as §4

wild oat [16] = assay: Test Example 5: herbicidal effect by foliage application, plastic box (Table 20, symbol I); format: in vivo, wild oat (Avena fatua); details: amount of applied herbicide 320 g/ha; foliage application after 14-day growth; evaluated three weeks after application
Procedure, shortened: as §4

blackgrass [17] = assay: Test Example 5: herbicidal effect by foliage application, plastic box (Table 20, symbol J); format: in vivo, blackgrass (Alopecurus myosuroides); details: amount of applied herbicide 320 g/ha; foliage application after 14-day growth; evaluated three weeks after application
Procedure, shortened: as §4

Italian ryegrass [18] = assay: Test Example 5: herbicidal effect by foliage application, plastic box (Table 20, symbol K); format: in vivo, Italian ryegrass (Lolium multiflorum); details: amount of applied herbicide 320 g/ha; foliage application after 14-day growth; evaluated three weeks after application
Procedure, shortened: as §4

windgrass [19] = assay: Test Example 5: herbicidal effect by foliage application, plastic box (Table 20, symbol L); format: in vivo, windgrass (Apera spica-venti); details: amount of applied herbicide 320 g/ha; foliage application after 14-day growth; evaluated three weeks after application
Procedure, shortened: as §4

velvetleaf [20] = assay: Test Example 5: herbicidal effect by foliage application, plastic box (Table 20, symbol M); format: in vivo, velvetleaf (Abutilon theophrasti); details: amount of applied herbicide 320 g/ha; foliage application after 14-day growth; evaluated three weeks after application
Procedure, shortened: as §4

redroot pigweed [21] = assay: Test Example 5: herbicidal effect by foliage application, plastic box (Table 20, symbol N); format: in vivo, redroot pigweed (Amaranthus retroflexus); details: amount of applied herbicide 320 g/ha; foliage application after 14-day growth; evaluated three weeks after application
Procedure, shortened: as §4

lambsquarters [22] = assay: Test Example 5: herbicidal effect by foliage application, plastic box (Table 20, symbol O); format: in vivo, lambsquarters (Chenopodium album); details: amount of applied herbicide 320 g/ha; foliage application after 14-day growth; evaluated three weeks after application
Procedure, shortened: as §4

chickweed [23] = assay: Test Example 5: herbicidal effect by foliage application, plastic box (Table 20, symbol P); format: in vivo, common chickweed (Stellaria media); details: amount of applied herbicide 320 g/ha; foliage application after 14-day growth; evaluated three weeks after application
Procedure, shortened: as §4

persian speedwell = assay: Test Example 5: herbicidal effect by foliage application, plastic box (Table 20, symbol R); format: in vivo, Persian speedwell (Veronica persica); details: amount of applied herbicide 320 g/ha; foliage application after 14-day growth; evaluated three weeks after application
Procedure, shortened: as §4

## Cc1nn(C)c(=O)c(-c2c(-c3ccc(C(F)(F)F)cc3)sc3c(C)cccc23)c1O [4-126]
Late watergrass
  Herbicidal effect, A: late watergrass: 3 (Herbicidal rate of 40% or more and less than 70%)
Japanese bulrush
  Herbicidal effect, B: Japanese bulrush: 0 (Herbicidal rate of 5% or less (almost no effect))
oval-leafed pondweed
  Herbicidal effect, C: oval-leafed pondweed: 0 (Herbicidal rate of 5% or less (almost no effect))
Barnyard grass [1]
  herbicidal effect on barnyard grass (H): 3 (Herbicidal rate of 40% or more and less than 70%)
Chinese sprangletop
  herbicidal effect on Chinese sprangletop (D): 0 (Herbicidal rate of 5% or less (almost no effect))
Rice flat sedge
  herbicidal effect on rice flat sedge (E): 3 (Herbicidal rate of 40% or more and less than 70%)
Southern crabgrass [2]
  Herbicidal effect by soil treatment, F: southern crabgrass: 0 (Herbicidal rate of 5% or less (almost no effect))
Green foxtail [3]
  Herbicidal effect by soil treatment, G: green foxtail: 0 (Herbicidal rate of 5% or less (almost no effect))
Barnyard grass [4]
  Herbicidal effect by soil treatment, H: barnyard grass: 0 (Herbicidal rate of 5% or less (almost no effect))
Wild oat [5]
  Herbicidal effect by soil treatment, I: wild oat: 0 (Herbicidal rate of 5% or less (almost no effect))
Blackgrass [6]
  Herbicidal effect by soil treatment, J: blackgrass: 0 (Herbicidal rate of 5% or less (almost no effect))
Italian ryegrass [7]
  Herbicidal effect by soil treatment, K: Italian ryegrass: 1 (Herbicidal rate of 5% or more and less than 20%)
Windgrass [8]
  Herbicidal effect by soil treatment, L: windgrass: 0 (Herbicidal rate of 5% or less (almost no effect))
Velvetleaf [9]
  Herbicidal effect by soil treatment, M: velvetleaf: 0 (Herbicidal rate of 5% or less (almost no effect))
Redroot pigweed [10]
  Herbicidal effect by soil treatment, N: redroot pigweed: 5 (Herbicidal rate of 90% or more (almost completely withered))
Lambsquarters [11]
  Herbicidal effect by soil treatment, O: lambsquarters: 3 (Herbicidal rate of 40% or more and less than 70%)
Chickweed [12]
  Herbicidal effect by soil treatment, P: chickweed: 4 (Herbicidal rate of 70% or more and less than 90%)
False cleavers
  Herbicidal effect by soil treatment, Q: false cleavers: 0 (Herbicidal rate of 5% or less (almost no effect))
Southern crabgrass [13]
  Herbicidal effect by foliage application, F: southern crabgrass: 0 (Herbicidal rate of 5% or less (almost no effect))
Green foxtail [14]
  Herbicidal effect by foliage application, G: green foxtail: 0 (Herbicidal rate of 5% or less (almost no effect))
Barnyard grass [15]
  Herbicidal effect by foliage application, H: barnyard grass: 0 (Herbicidal rate of 5% or less (almost no effect))
Wild oat [16]
  Herbicidal effect by foliage application, I: wild oat: 0 (Herbicidal rate of 5% or less (almost no effect))
Blackgrass [17]
  Herbicidal effect by foliage application, J: blackgrass: 3 (Herbicidal rate of 40% or more and less than 70%)
Italian ryegrass [18]
  Herbicidal effect by foliage application, K: Italian ryegrass: 4 (Herbicidal rate of 70% or more and less than 90%)
Windgrass [19]
  Herbicidal effect by foliage application, L: windgrass: 0 (Herbicidal rate of 5% or less (almost no effect))
Velvetleaf [20]
  Herbicidal effect by foliage application, M: velvetleaf: 5 (Herbicidal rate of 90% or more (almost completely withered))
Redroot pigweed [21]
  Herbicidal effect by foliage application, N: redroot pigweed: 5 (Herbicidal rate of 90% or more (almost completely withered))
Lambsquarters [22]
  Herbicidal effect by foliage application, O: lambsquarters: 3 (Herbicidal rate of 40% or more and less than 70%)
Chickweed [23]
  Herbicidal effect by foliage application, P: chickweed: 5 (Herbicidal rate of 90% or more (almost completely withered))
Persian speedwell
  Herbicidal effect by foliage application, R: persian speedwell: 5 (Herbicidal rate of 90% or more (almost completely withered))
